Experimental data from US20250332300A1 (priority 2024, published 2025).
Where a name gives a salt, the structure may show the parent alone. Read-outs that look alike come from different tables or passages of the source. Positions of bridges follow the written chain, without caps; N, C: chain ends. Non-standard residues stand in square brackets, D forms with d. Residues, ends and D or L forms follow the SMILES beside them. Triazole bridges read from a SMILES are 1,4-linked. Chains are numbered I, II in the order given. *: point of attachment. DOTA = O=C(O)CN1CCN(CC(=O)O)CCN(CC(=O)*)CCN(CC(=O)O)CC1; Trp(5-OH) = N[C@@H](Cc1c[nH]c2ccc(O)cc12)C(=O)O; NMePhe(4-F) = CN[C@@H](Cc1ccc(F)cc1)C(=O)O; Lys(N3) = [N-]=[N+]=NCCCC[C@H](N)C(=O)O; NMehPhe = CN[C@@H](CCc1ccccc1)C(=O)O; NMeAoc(2) = CCCCCC[C@H](NC)C(=O)O; Aad = N[C@@H](CCCC(=O)O)C(=O)O; Gly(cPr) = N[C@H](C(=O)O)C1CC1; NMeK = CN[C@@H](CCCCN)C(=O)O; NMeDap = CN[C@@H](CN)C(=O)O; hLys = NCCCCC[C@H](N)C(=O)O; Pra = C#CC[C@H](N)C(=O)O; Sar = CNCC(=O)O

Tests used:
Format in all cases: binding
mouse HER2 (23-653) [1] = target: T1, mouse HER2 (23-653) (Mus musculus, UniProt P70424); test: TR-FRET competition assay for peptide potency, mouse HER2; parameters: mouse HER2 (23-653) using a Cy5 labeled peptide as a probe; made in house; host or cells: mammalian cells; details: 0.1 nM mouse HER2, 24 h incubation
mouse HER2 (23-653) [2] = target: T1, mouse HER2 (23-653); test: Surface plasmon resonance (SPR) for assessment of peptide affinity, mouse HER2; parameters: mouse HER2 (23-653) using a Cy5 labeled peptide as a probe; made in house
Description: Each protein was immobilized either onto a SA sensorchip (Cytiva, BR-1005-31) or CM5 sensorchip (Cytiva, BR-1005-30) to a density of 800-2000 RU.

human HER2 (23-652) [3] = target: T2, human HER2 (23-652) (Homo sapiens, UniProt P04626); test: TR-FRET competition assay for peptide potency, human HER2; parameters: towards human HER2 (23-652) and mouse HER2 (23-653); made in house; host or cells: mammalian cells; details: read-out: huHER2 TR-FRET IC50
human HER2 (23-652) [4] = target: T2, human HER2 (23-652); test: Surface plasmon resonance (SPR) for assessment of peptide affinity, human HER2; parameters: towards human HER2 (23-652) and mouse HER2 (23-653); made in house; details: SPR, human HER2 extracellular domain, 25° C., 1:1 binding model; read-out: huHER2-SPR-ONC KD
Protocol: Each protein was immobilized either onto a SA sensorchip (Cytiva, BR-1005-31) or CM5 sensorchip (Cytiva, BR-1005-30) to a density of 800-2000 RU. […] For the assay setup the same conditions (flow rate, running buffer, peptide dilution) as described above were used. In a first step the Anti Fc IgG Ab (from Human Antibody Capture Kit, Ref. 29234600, Cytiva) was diluted into acetate pH 5.0 at 25 ug/mL and immobilized at a flow rate of 10 uL/min over 360 s to reach a density around 6000 RU. […] The peptides were tested with an association time of 280 s followed by a dissociation time of 3000 s at a flow rate of 30 uL/min. The regeneration was done using 3 M magnesium chloride regeneration solution as obtained with a contact time of 30 s at a flow rate of 10 uL/min. Curve fitting was performed using the BiacoreTM 8K evaluation software.

[5] = TR-FRET competition with Cy5 labeled peptide probe, read-out: moHER2 TR-FRET IC50
[6] = SPR, mouse HER2 extracellular domain, 25° C., 1:1 binding model, read-out: moHER2-SPR-ONC KD
[7] = TR-FRET competition with Cy5 labeled peptide probe, 0.1 nM human HER2, 24 h incubation

| IC50 (mouse HER2 (23-653) [1]; [5]) [nM] | IC50 (human HER2 (23-652) [3]; [7]) [nM] | Kd (human HER2 (23-652) [4]) [nM] | Compound | Kd (mouse HER2 (23-653) [2]; [6]) [nM] | also measured |
| --- | --- | --- | --- | --- | --- |
| 4.7 |  |  | CCCCCC[C@H]1C(=O)N(C)[C@@H](CCCCNC(C)=O)C(=O)N[C@@H](Cc2c[nH]c3ccc(O)cc23)C(=O)N[C@@H](Cc2c[nH]c3ccccc23)C(=O)N[C@@H](C2CC2)C(=O)N(C)[C@H](C(=O)N(C)[C@@H](Cc2ccc(F)cc2)C(N)=O)CNC(=O)CCC[C@H](NC(C)=O)C(=O)N[C@@H](Cc2ccc(O)cc2)C(=O)N[C@@H](CO)C(=O)N1C [Example A20, (3S,6S,9S,12S,15S,18S,21S,24S,27S)-9-((1H-indol-3-yl)methyl)-27-acetamido-15-(4-acetamidobutyl)-N-((S)-1-amino-3-(4-fluorophenyl)-1-oxopropan-2-yl)-6-cyclopropyl-18-hexyl-12-((5-hydroxy-1H-indol-3-yl)methyl)-24-(4-hydroxybenzyl)-21-(hydroxymethyl)-N,4,16,19-tetramethyl-5,8,11,14,17,20,23,26,31-nonaoxo-1,4,7,10,13,16,19,22,25-nonaazacyclohentriacontane-3-carboxamide] (Ac-[Aad]YS[NMeAoc(2)][NMeK](Ac)[Trp(5-OH)]W[Gly(cPr)][NMeDap][NMePhe(4-F)]-NH2; lactam 1-9) | 2.5 |  |
|  |  |  | CC(=O)NCCCC[C@H]1C(=O)N[C@@H](Cc2c[nH]c3ccc(O)cc23)C(=O)N[C@@H](Cc2c[nH]c3ccccc23)C(=O)N[C@@H](C2CC2)C(=O)N(C)[C@H](C(=O)N(C)[C@@H](Cc2ccc(F)cc2)C(N)=O)CNC(=O)CC[C@H](N)C(=O)N[C@@H](Cc2ccc(O)cc2)C(=O)N[C@@H](CO)C(=O)N(C)[C@@H](CCc2ccccc2)C(=O)N1C [Example A32, (3S,6S,9S,12S,15S,18S,21S,24S,27S)-9-((1H-indol-3-yl)methyl)-15-(4-acetamidobutyl)-27-amino-N-((S)-1-amino-3-(4-fluorophenyl)-1-oxopropan-2-yl)-6-cyclopropyl-12-((5-hydroxy-1H-indol-3-yl)methyl)-24-(4-hydroxybenzyl)-21-(hydroxymethyl)-N,4,16,19-tetramethyl-5,8,11,14,17,20,23,26,30-nonaoxo-18-phenethyl-1,4,7,10,13,16,19,22,25-nonaazacyclotriacontane-3-carboxamide TFA salt] |  | IC50 (mouse HER2 (23-653) [1]; moHER2 TR-FRET IC50, TR-FRET competition with Cy5 labeled peptide probe): 2.6 nM; Kd (mouse HER2 (23-653) [2]): 2.2 nM |
|  |  |  | COCCOCCOCCOCCOCCOCCOCCOCCOCCOCCOCCOCCC(=O)N[C@H]1CCCC(=O)NC[C@@H](C(=O)N(C)[C@@H](Cc2ccc(F)cc2)C(=O)N[C@@H](CCCCNC(=O)CN2CCN(CC(=O)O)CCN(CC(=O)O)CCN(CC(=O)O)CC2)C(N)=O)N(C)C(=O)[C@H](C2CC2)NC(=O)[C@H](Cc2c[nH]c3ccccc23)NC(=O)[C@H](Cc2c[nH]c3ccc(O)cc23)NC(=O)[C@H](CCCCNC(C)=O)N(C)C(=O)[C@H](CCc2ccccc2)N(C)C(=O)[C@H](CO)NC(=O)[C@H](Cc2ccc(O)cc2)NC1=O [Example C2] | 0.2 |  |
| 0.1 | < 0.1 | < 0.1 | CC(=O)NCCCC[C@H]1C(=O)N[C@@H](Cc2c[nH]c3ccc(O)cc23)C(=O)N[C@@H](Cc2c[nH]c3ccccc23)C(=O)N[C@@H](C2CC2)C(=O)N(C)[C@H](C(=O)N(C)[C@@H](Cc2ccc(F)cc2)C(=O)N[C@@H](CCCCCNC(=O)CN2CCN(CC(=O)O)CCN(CC(=O)O)CCN(CC(=O)O)CC2)C(N)=O)CNC(=O)CCC[C@H](NC(C)=O)C(=O)N[C@@H](Cc2ccc(O)cc2)C(=O)N[C@@H](CO)C(=O)N(C)[C@@H](CCc2ccccc2)C(=O)N1C [Example C17] (Ac-[Aad]YS[NMehPhe][NMeK](Ac)[Trp(5-OH)]W[Gly(cPr)][NMeDap][NMePhe(4-F)][hLys](DOTA)-NH2; lactam 1-9) |  |  |
| 0.6 | 0.1 | 0.1 | CC(=O)NCCCC[C@H]1C(=O)N[C@@H](Cc2c[nH]c3ccc(O)cc23)C(=O)N[C@@H](Cc2c[nH]c3ccccc23)C(=O)N[C@@H](C2CC2)C(=O)N(C)[C@H](C(=O)N(C)[C@@H](Cc2ccc(F)cc2)C(=O)N[C@@H](CCCCNC(=O)CN2CCN(CC(=O)O)CCN(CC(=O)O)CCN(CC(=O)O)CC2)C(N)=O)CNC(=O)CCC[C@H](N)C(=O)N[C@@H](Cc2ccc(O)cc2)C(=O)N[C@@H](CO)C(=O)N(C)[C@@H](CCc2ccccc2)C(=O)N1C [Example C18] |  |  |
| 57 |  |  | CC(=O)NCCCC[C@H]1C(=O)N[C@@H](Cc2c[nH]c3ccc(O)cc23)C(=O)N[C@@H](Cc2c[nH]c3ccccc23)C(=O)N[C@@H]([C@H](C)O)C(=O)N(C)[C@H](C(=O)N(C)[C@@H](Cc2ccc(F)cc2)C(=O)N[C@@H](CCCCNC(=O)N2CCN(CC(=O)O)CC2)C(N)=O)CNC(=O)CC[C@H](NC(=O)CN2CCN(CC(=O)O)CCN(CC(=O)O)CCN(CC(=O)O)CC2)C(=O)N[C@@H](Cc2ccc(O)cc2)C(=O)N[C@@H](CO)C(=O)N(C)[C@@H](CCc2ccccc2)C(=O)N1C [Example C27] | 54 |  |
|  |  |  | CC(=O)NCCCC[C@H]1C(=O)N[C@@H](Cc2c[nH]c3ccc(O)cc23)C(=O)N[C@@H](Cc2c[nH]c3ccccc23)C(=O)N[C@@H](C2CC2)C(=O)N(C)[C@H](C(=O)N(C)[C@@H](Cc2ccc(F)cc2)C(=O)N[C@@H](CCCCNC(=O)CC[C@H](C(=O)O)N2CCN(CC(=O)O)CCN(CC(=O)O)CCN(CC(=O)O)CC2)C(N)=O)CNC(=O)CCC[C@H](NC(C)=O)C(=O)N[C@@H](Cc2ccc(O)cc2)C(=O)N[C@@H](CO)C(=O)N(C)[C@@H](CCc2ccccc2)C(=O)N1C [Example C33] | < 0.1 |  |
| 0.3 |  | < 0.1 | COCCOCCOCCOCCOCCOCCOCCOCCOCCOCCOCCOCCC(=O)N[C@H]1CCCC(=O)NC[C@@H](C(=O)N(C)[C@@H](Cc2ccc(F)cc2)C(=O)N[C@@H](CCCCNC(=O)c2ccc(F)nc2)C(N)=O)N(C)C(=O)[C@H](C2CC2)NC(=O)[C@H](Cc2c[nH]c3ccccc23)NC(=O)[C@H](Cc2c[nH]c3ccc(O)cc23)NC(=O)[C@H](CCCCNC(C)=O)N(C)C(=O)[C@H](CCc2ccccc2)N(C)C(=O)[C@H](CO)NC(=O)[C@H](Cc2ccc(O)cc2)NC1=O [Example F3] |  | IC50 (human HER2 (23-652) [3]): < 0.1 nM |
| 3.8 | 1 | 0.7 | CCCCCCCCCCCC(CCCCCCCCCCC(=O)O)(C(=O)O)C(=O)NCCOCCOCCOCCOCCOCCOCCOCCOCCOCCOCCOCCOCCOCCOCCOCCOCCOCCOCCOCCOCCOCCOCCOCCOCCC(=O)N[C@H]1CCCC(=O)NC[C@@H](C(=O)N(C)[C@@H](Cc2ccc(F)cc2)C(=O)N[C@@H](CCCCNC(=O)CN2CCN(CC(=O)O)CCN(CC(=O)O)CCN(CC(=O)O)CC2)C(N)=O)N(C)C(=O)[C@H](C2CC2)NC(=O)[C@H](Cc2c[nH]c3ccccc23)NC(=O)[C@H](Cc2c[nH]c3ccc(O)cc23)NC(=O)[C@H](CCCCNC(C)=O)N(C)C(=O)[C@H](CCc2ccccc2)N(C)C(=O)[C@H](CO)NC(=O)[C@H](Cc2ccc(O)cc2)NC1=O (some centres unmarked) [Example G1] |  |  |

| Compound | IC50 (mouse HER2 (23-653) [1]; [5]) [nM] | IC50 (human HER2 (23-652) [3]; [7]) [nM] | Kd (human HER2 (23-652) [4]) [nM] | Kd (mouse HER2 (23-653) [2]; [6]) [nM] | also measured |
| --- | --- | --- | --- | --- | --- |
| CC(=O)NCCCC[C@H]1C(=O)N[C@@H](Cc2c[nH]c3ccc(O)cc23)C(=O)N[C@H](Cc2c[nH]c3ccccc23)C(=O)N[C@@H](C2CC2)C(=O)N(C)[C@H](C(=O)N(C)[C@@H](Cc2ccc(F)cc2)C(=O)N[C@@H](CCCCNC(=O)CN2CCN(CC(=O)O)CCN(CC(=O)O)CCN(CC(=O)O)CC2)C(N)=O)CNC(=O)CCC[C@H](NC(C)=O)C(=O)N[C@@H](Cc2ccc(O)cc2)C(=O)N[C@@H](CO)C(=O)N(C)[C@@H](CCc2ccccc2)C(=O)N1C [Example C31] | > 10000 | 4840 | > 6000 |  |  |
| I: Ac-[Pra][Sar][Sar][Sar][Sar][Sar][Sar][Sar][Sar][Sar][Sar][Sar][Sar][Sar][Sar]K(DOTA)[Sar][Sar][Sar][Sar][Sar][Sar][Sar][Sar][Sar][Sar][Sar][Sar][Sar][Sar][Pra]-NH2 / II: Ac-[Aad]YS[NMehPhe][NMeK](Ac)[Trp(5-OH)]W[Gly(cPr)][NMeDap][NMePhe(4-F)][Lys(N3)]-NH2 / III: Ac-[Aad]YS[NMehPhe][NMeK](Ac)[Trp(5-OH)]W[Gly(cPr)][NMeDap][NMePhe(4-F)][Lys(N3)]-NH2 (triazole I:1-II:11, I:31-III:11; lactam II:1-II:9, III:1-III:9) [Example C4] | 0.4 | 0.1 | < 0.1 |  |  |
